Experiments:
MDA-MB-231 cells = assay: TUNEL assay (DNA damage); format: cell-based, human; conditions: 50 μM, 24 h
Description: To further assess the effect of 3h treatment in MDA-MB-231, the terminal deoxynucleotidyl transferase dUTP nick-end labeling (TUNEL) assay was used. Thus, 3h or Thalidomide, as reference drug, were administered to the cells, for 24 h, at 25 and 50 μM concentrations, respectively, or with only the vehicle (DMSO), as negative control and then processed as outlined in the experimental section. […] Nuclei were counterstained with blue DAPI (Figure 2, panels A), and merge channels were also shown (Figure 2, panels C), where it is evident the perfect superposition of green and blue signals. […] Images taken from bright fields were also included (Figure 2, panels D).
DNA damage and cell death were analyzed by means of the TUNEL assay as indicated by the manufacturer’s protocols (CF™488A TUNEL Assay Apoptosis Detection Kit, Biotium, Hayward, CA, USA), with few changes, as in [42]. DAPI staining (0.2 μg/mL, Sigma Aldrich, Milan, Italy) was adopted for cell nuclei. Observations were made at 20× magnification using a fluorescence microscope (Leica DM 6000, Leica Microsystem Srl, Buccinasco, Italy). LAS-X software (Version: 3.5.7.23225; Leica Microsystem Srl, Buccinasco, Italy) was employed for the acquisition and processing of the images. Images are representative of two separate experiments from which different fields were acquired.
Figure 2 TUNEL assay. […]

BALB/3T3 cells [1] = assay: MTT assay, BALB/3T3 fibroblasts; format: cell-based; conditions: mouse fibroblasts, read-out: IC50 BALB/3T3 (MTT, lack of toxicity)
Description: (§1) Cells were treated for 24 h, and N-acetylcystein (NAC), a compound well-known for its antioxidant capacity, was used as a reference molecule. […] Compound 3h was able to reduce ROS formation by 61.4 ± 2% at the maximum concentration of 160 μM in the BALB/3T3 cells, as shown by the quantification of fluorescence intensity, proving compound 3h to be a good ROS scavenger.
The four cell lines used in this work (MCF-7, MDA-MB-231, MCF-10A, and 3T3-L1) were obtained from the American Type Culture Collection (ATCC, Manassas, VA, USA). All cell lines were maintained at 37 °C in a humidified atmosphere of 95% air and 5% CO2 and periodically screened for contamination. […]
Cell viability was evaluated by means of the 3-(4,5-dimethylthiazol-2-y1)-2,5-diphenyltetra zolium bromide (MTT, Sigma-Aldrich, Milan, Italy) assay. […] Cells were lysed with DMSO after 2 h of incubation at 37 °C, and optical density at 570 nm was then determined with a microplate reader. Using GraphPad Prism 9 software (GraphPad Inc., San Diego, CA, USA), the mean absorbance for each sample was expressed as a percentage over the control and plotted vs. drug concentrations to establish the IC50 values. […]

BALB/3T3 cells [2] = assay: ROS protection assay (DCFH-DA, H2O2-induced); format: cell-based, mouse; conditions: 160 μM, BALB/3T3, DCFH-DA
Description: as §1
ROS production was detected using the oxidation-sensitive fluorescent probe 2′,7′-dichlorodihydrofluorescein diacetate (DCFH-DA, D6665; Sigma-Aldrich, St. Louis, MO, USA) by modifying the method described by Wang and James. A black 96-well cell culture plate (Costar, Sigma Aldrich, St. Louis, MO, USA) was used to seed viable cells. After 24 h, the cells were treated with different concentrations of compound 3h (0.1–160 µM) for 1 h at 37 °C in 5% CO2. At the end of the treatment, cells were incubated with 2′,7′-dichlorofluorescein diacetate (DCFH-DA) for 30′, used at a concentration of 25 µM, in 5% CO2. […] The formation of fluorescent dichlorofluorescein (DCF), due to the oxidation of DCFH in the presence of ROS, was read at 530 nm using a microplate reader, the Tecan Infinite M1000 Pro (Tecan, Cernusco S.N., Italy), and DMSO medium was used for control cells. The data were analyzed for statistical significance (p < 0.0001) using a one-way ANOVA, followed by Dunnett’s test performed by GraphPad Prism 9. […]

O=C1c2ccccc2C(=O)N1c1nc2ccc(Oc3ccccc3)cc2s1 [3h, 2-[6-Phenoxy-1,3-benzothiazol-2-yl]-1H-isoindole-1,3(2H)-dione]
DNA damage (TUNEL, green nuclear fluorescence) (MDA-MB-231 cells): promoted DNA damage
IC50 (BALB/3T3 cells [1]): > 200 µM
reduction of ROS formation (BALB/3T3 cells [2]): 61.4 ± 2%
